Measurements as given in ChEMBL document CHEMBL1125373, “Systemic analgesic activity and delta-opioid selectivity in [2,6-dimethyl-Tyr1,D-Pen2,D-Pen5]enkephalin” (J Med Chem, 1992).
pEC50: −log10 of the molar value.

Legend:
Format in all cases: functional
Mus musculus [1] = experiment: In vivo antinociceptive activity in mice by using hot plate test after intracerebroventricular administration
Mus musculus [2] = experiment: In vivo antinociceptive activity in mice by using hot plate test after subcutaneous administration; settings: sc
Mus musculus [3] = experiment: In vivo antinociceptive activity in mice by using PBQ writing test after subcutaneous administration; settings: sc
Mus musculus [4] = organism: Mus musculus; experiment: In Vitro evaluation for the potency for inhibiting the contraction of the electrically stimulated isolated mouse vas deferens

Structure (SMILES) | ED50 (Mus musculus [1]) [µg] | ED50 (Mus musculus [2]) [mg/kg] | ED50 (Mus musculus [3]) [mg/kg] | pEC50 (Mus musculus [4])
CN1CC[C@]23c4c5ccc(O)c4O[C@H]2[C@@H](O)C=C[C@H]3[C@H]1C5 [MORPHINE] | 0.6 | 3.2 | 0.2 | –
Cc1cc(O)cc(C)c1C[C@H](N)C(=O)N[C@H]1C(=O)NCC(=O)N[C@@H](Cc2ccccc2)C(=O)N[C@@H](C(=O)O)C(C)(C)SSC1(C)C [listing 1 of 2 here] | – | – | – | 9.82
CC1(C)SSC(C)(C)[C@@H](NC(=O)[C@@H](N)Cc2ccc(O)cc2)C(=O)NCC(=O)N[C@@H](Cc2ccccc2)C(=O)N[C@H]1C(=O)O | 1.4 | – | – | 7.89
Cc1cc(O)cc(C)c1C[C@H](N)C(=O)N[C@H]1C(=O)NCC(=O)N[C@@H](Cc2ccccc2)C(=O)N[C@@H](C(=O)O)C(C)(C)SSC1(C)C [listing 2 of 2 here] | 0.2 | 33 | 2.6 | –
